Structures are written as SMILES.

For experiment [1], the target named is Protein kinase C eta type (Homo sapiens) (UniProt P24723). Put plainly: Inhibition of PRKCH (unknown origin) assessed as residual activity at 100 nM by KINOMEscan analysis relative to control.
In experiment [2] the target is T1, Serine/threonine-protein kinase STK11 (Homo sapiens) (UniProt Q15831).
T1 sequence (whole entry): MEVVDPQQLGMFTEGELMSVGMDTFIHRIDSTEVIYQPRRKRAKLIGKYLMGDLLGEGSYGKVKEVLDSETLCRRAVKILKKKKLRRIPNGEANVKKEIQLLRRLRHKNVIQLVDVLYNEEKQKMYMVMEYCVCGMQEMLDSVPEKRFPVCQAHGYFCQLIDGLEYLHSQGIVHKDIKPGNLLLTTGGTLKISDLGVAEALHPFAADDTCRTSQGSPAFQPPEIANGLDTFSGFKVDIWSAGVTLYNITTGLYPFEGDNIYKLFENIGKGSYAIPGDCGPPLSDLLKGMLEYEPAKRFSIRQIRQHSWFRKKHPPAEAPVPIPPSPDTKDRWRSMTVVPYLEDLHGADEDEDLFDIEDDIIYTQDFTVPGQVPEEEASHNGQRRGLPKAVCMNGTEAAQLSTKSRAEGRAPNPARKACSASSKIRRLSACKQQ
Put plainly: Inhibition of LKB1 (unknown origin) assessed as residual activity at 100 nM by KINOMEscan analysis relative to control.

For another experiment, the species on record is Homo sapiens. The experiment is described as follows: Inhibition of N-terminal GST-tagged recombinant human SOS1 H905M mutant (564 to 1049 residues) expressed in Escherichia coli assessed as reduction in KRAS G12C mutant activation at 10 uM by HTRF analysis relative to control.
For experiment [3], the target named is T2, Ephrin type-B receptor 3 (Homo sapiens) (UniProt P54753).
T2 sequence (whole entry): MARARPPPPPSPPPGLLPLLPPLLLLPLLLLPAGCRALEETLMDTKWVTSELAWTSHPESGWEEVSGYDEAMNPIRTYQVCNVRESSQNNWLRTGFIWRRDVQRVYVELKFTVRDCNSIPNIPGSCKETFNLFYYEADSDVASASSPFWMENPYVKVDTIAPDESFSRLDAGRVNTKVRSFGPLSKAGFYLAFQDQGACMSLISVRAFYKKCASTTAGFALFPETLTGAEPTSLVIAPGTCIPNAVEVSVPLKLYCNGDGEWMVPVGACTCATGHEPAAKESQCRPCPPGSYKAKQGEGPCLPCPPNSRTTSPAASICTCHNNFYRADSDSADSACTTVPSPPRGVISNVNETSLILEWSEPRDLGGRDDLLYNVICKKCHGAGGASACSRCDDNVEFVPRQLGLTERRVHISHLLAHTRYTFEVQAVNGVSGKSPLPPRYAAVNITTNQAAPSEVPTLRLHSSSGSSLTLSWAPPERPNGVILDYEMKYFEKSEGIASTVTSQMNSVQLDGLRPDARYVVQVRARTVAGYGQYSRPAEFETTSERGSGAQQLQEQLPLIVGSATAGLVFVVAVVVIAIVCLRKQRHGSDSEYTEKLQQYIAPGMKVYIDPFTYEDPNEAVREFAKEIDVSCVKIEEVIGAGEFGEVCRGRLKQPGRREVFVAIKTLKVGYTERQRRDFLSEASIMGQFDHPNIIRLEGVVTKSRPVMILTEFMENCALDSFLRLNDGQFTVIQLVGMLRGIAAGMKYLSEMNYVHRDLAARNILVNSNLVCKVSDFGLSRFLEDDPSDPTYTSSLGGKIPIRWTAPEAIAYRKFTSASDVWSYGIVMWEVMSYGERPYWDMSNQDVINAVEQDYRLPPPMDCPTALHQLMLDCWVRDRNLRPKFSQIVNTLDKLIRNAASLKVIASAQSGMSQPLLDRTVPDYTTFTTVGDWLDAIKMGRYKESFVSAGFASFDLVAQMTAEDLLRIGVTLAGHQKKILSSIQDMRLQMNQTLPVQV
Put plainly: Inhibition of EPHB3 (unknown origin) assessed as residual activity at 100 nM by KINOMEscan analysis relative to control.

For experiment [4], the target named is STE20-like serine/threonine-protein kinase (Homo sapiens) (UniProt Q9H2G2). Put plainly: Inhibition of SLK (unknown origin) assessed as residual activity at 100 nM by KINOMEscan analysis relative to control.
Experiment [5] has as its target Ephrin type-A receptor 2 (Homo sapiens) (UniProt P29317). The experiment is described as follows: Inhibition of EPHA2 (unknown origin) assessed as residual activity at 100 nM by KINOMEscan analysis relative to control.
Experiment [6] addresses Myosin light chain kinase 2, skeletal/cardiac muscle (Homo sapiens) (UniProt Q9H1R3). The experiment is described as follows: Inhibition of MYLK2 (unknown origin) assessed as residual activity at 100 nM by KINOMEscan analysis relative to control.
The target of experiment [7] is T3, MAP kinase-activated protein kinase 5 (Homo sapiens) (UniProt Q8IW41).
T3 sequence (whole entry): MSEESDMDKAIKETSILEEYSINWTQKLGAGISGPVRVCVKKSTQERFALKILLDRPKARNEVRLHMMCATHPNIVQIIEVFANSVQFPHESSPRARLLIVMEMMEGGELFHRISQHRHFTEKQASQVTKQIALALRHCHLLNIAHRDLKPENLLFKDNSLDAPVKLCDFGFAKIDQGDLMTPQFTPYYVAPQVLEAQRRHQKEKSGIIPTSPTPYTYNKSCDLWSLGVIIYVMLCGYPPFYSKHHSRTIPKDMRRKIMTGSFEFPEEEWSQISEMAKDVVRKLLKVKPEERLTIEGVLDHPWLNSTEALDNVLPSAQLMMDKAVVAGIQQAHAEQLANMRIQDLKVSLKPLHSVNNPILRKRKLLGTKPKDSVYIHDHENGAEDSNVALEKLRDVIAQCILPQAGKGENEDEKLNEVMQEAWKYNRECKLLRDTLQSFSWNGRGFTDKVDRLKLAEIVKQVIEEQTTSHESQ
The experiment is described as follows: Inhibition of MAPKAPK5 (unknown origin) assessed as residual activity at 100 nM by KINOMEscan analysis relative to control.

For experiment [8], the target named is Vascular endothelial growth factor receptor 2 (Homo sapiens) (UniProt P35968). Put plainly: Inhibition of VEGFR2 (unknown origin) assessed as residual activity at 100 nM by KINOMEscan analysis relative to control.
In experiment [9] the target is Death-associated protein kinase 1 (Homo sapiens) (UniProt P53355). The experiment is described as follows: Inhibition of DAPK1 (unknown origin) assessed as residual activity at 100 nM by KINOMEscan analysis relative to control.
For experiment [10], the target named is Mitogen-activated protein kinase kinase kinase 9 (Homo sapiens) (UniProt P80192). Put plainly: Inhibition of MLK1 (unknown origin) assessed as residual activity at 100 nM by KINOMEscan analysis relative to control.
Experiment [11] addresses Vascular endothelial growth factor receptor 3 (Homo sapiens) (UniProt P35916). Put plainly: Inhibition of FLT4 (unknown origin) assessed as residual activity at 100 nM by KINOMEscan analysis relative to control.

Vascular endothelial growth factor receptor 3 (Homo sapiens), sequence (P35916 whole entry): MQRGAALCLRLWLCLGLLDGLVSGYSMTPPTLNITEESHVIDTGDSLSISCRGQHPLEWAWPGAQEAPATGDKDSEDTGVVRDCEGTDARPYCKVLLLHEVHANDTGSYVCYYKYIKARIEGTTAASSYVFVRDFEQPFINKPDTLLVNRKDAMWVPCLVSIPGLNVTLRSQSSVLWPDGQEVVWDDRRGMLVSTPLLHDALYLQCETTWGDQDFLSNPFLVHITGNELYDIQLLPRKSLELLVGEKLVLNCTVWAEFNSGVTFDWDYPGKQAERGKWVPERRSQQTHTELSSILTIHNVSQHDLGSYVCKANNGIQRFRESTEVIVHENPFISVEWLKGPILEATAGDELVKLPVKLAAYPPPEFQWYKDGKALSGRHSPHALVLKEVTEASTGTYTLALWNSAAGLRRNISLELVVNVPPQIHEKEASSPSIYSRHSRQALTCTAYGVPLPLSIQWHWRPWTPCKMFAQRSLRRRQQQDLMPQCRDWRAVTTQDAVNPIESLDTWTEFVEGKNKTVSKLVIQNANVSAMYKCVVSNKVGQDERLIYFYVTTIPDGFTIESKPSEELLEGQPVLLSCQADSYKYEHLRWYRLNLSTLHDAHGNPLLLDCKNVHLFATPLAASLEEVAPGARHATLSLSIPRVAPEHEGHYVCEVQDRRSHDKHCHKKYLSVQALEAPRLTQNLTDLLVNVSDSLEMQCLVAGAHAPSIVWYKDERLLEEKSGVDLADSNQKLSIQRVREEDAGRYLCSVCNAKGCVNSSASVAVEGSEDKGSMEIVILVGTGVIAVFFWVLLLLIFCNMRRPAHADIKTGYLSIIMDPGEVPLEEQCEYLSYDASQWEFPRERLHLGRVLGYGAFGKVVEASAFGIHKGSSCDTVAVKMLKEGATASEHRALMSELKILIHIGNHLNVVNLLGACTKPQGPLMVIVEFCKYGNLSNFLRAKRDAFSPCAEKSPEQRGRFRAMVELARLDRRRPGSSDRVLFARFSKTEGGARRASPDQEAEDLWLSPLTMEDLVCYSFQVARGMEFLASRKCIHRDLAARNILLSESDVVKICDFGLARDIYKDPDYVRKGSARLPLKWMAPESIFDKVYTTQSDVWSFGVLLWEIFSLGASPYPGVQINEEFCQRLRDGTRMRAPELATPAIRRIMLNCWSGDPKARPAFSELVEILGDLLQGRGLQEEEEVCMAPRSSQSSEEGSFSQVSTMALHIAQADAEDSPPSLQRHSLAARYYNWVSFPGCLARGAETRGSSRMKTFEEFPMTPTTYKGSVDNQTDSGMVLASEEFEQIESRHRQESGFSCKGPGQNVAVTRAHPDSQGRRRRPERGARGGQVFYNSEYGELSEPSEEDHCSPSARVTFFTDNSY
Ephrin type-A receptor 2 (Homo sapiens), sequence (P29317 whole entry): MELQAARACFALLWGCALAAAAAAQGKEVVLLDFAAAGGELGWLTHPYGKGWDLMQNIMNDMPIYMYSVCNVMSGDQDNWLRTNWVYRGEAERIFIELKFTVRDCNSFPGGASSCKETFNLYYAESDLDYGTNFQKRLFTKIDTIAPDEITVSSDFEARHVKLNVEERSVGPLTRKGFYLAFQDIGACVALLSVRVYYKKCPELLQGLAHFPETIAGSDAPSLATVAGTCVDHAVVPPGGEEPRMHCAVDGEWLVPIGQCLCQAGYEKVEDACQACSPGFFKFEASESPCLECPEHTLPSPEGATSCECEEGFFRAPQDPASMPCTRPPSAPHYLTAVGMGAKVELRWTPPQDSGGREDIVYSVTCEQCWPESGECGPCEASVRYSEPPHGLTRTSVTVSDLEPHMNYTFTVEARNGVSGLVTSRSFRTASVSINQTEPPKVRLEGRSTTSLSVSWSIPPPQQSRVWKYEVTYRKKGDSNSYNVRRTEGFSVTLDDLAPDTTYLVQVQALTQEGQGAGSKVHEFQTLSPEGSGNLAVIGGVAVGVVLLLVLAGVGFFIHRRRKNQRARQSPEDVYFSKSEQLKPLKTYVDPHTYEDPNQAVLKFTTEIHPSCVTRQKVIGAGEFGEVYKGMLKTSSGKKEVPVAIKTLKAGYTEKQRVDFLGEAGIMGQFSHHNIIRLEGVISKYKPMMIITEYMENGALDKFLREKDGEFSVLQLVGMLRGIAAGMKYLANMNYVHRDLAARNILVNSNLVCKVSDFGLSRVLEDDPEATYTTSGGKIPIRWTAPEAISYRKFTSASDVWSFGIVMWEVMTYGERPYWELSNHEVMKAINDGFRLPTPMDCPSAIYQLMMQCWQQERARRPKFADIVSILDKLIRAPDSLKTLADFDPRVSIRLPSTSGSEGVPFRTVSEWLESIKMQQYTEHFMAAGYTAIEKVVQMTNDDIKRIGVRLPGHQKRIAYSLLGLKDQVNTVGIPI
STE20-like serine/threonine-protein kinase (Homo sapiens), sequence (Q9H2G2 whole entry, looked up): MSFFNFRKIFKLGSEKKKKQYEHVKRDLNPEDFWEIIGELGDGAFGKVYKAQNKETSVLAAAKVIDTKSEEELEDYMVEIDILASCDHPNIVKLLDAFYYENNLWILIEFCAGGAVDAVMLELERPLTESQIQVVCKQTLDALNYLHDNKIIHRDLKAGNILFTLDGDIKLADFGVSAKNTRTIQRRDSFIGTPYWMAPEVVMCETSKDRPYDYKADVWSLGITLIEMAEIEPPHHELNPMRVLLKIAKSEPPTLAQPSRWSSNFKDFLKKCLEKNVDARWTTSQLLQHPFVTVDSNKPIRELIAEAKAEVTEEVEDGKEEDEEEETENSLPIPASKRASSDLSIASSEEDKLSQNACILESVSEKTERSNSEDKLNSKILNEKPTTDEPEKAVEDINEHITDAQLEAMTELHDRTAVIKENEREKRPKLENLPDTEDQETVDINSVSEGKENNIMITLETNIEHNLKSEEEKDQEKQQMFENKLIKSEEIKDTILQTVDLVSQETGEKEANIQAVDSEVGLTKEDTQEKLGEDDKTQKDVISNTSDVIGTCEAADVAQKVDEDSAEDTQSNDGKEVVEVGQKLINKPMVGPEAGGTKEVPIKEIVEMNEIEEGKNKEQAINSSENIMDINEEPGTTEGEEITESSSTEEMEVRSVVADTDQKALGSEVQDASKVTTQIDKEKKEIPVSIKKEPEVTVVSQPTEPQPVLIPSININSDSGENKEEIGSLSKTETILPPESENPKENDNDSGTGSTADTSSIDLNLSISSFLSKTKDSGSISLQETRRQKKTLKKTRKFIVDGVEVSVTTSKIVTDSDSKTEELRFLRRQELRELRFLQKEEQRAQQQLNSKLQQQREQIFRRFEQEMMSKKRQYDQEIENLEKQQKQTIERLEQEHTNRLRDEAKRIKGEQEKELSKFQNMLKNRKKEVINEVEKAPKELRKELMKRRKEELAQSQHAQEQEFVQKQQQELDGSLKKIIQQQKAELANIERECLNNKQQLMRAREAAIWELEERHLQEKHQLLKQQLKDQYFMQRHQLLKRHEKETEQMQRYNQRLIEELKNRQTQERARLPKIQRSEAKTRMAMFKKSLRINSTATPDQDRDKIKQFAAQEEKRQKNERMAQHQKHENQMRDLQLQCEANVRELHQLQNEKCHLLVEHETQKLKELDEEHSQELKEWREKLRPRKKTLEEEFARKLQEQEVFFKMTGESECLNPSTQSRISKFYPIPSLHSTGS
Death-associated protein kinase 1 (Homo sapiens), sequence (P53355 whole entry, looked up): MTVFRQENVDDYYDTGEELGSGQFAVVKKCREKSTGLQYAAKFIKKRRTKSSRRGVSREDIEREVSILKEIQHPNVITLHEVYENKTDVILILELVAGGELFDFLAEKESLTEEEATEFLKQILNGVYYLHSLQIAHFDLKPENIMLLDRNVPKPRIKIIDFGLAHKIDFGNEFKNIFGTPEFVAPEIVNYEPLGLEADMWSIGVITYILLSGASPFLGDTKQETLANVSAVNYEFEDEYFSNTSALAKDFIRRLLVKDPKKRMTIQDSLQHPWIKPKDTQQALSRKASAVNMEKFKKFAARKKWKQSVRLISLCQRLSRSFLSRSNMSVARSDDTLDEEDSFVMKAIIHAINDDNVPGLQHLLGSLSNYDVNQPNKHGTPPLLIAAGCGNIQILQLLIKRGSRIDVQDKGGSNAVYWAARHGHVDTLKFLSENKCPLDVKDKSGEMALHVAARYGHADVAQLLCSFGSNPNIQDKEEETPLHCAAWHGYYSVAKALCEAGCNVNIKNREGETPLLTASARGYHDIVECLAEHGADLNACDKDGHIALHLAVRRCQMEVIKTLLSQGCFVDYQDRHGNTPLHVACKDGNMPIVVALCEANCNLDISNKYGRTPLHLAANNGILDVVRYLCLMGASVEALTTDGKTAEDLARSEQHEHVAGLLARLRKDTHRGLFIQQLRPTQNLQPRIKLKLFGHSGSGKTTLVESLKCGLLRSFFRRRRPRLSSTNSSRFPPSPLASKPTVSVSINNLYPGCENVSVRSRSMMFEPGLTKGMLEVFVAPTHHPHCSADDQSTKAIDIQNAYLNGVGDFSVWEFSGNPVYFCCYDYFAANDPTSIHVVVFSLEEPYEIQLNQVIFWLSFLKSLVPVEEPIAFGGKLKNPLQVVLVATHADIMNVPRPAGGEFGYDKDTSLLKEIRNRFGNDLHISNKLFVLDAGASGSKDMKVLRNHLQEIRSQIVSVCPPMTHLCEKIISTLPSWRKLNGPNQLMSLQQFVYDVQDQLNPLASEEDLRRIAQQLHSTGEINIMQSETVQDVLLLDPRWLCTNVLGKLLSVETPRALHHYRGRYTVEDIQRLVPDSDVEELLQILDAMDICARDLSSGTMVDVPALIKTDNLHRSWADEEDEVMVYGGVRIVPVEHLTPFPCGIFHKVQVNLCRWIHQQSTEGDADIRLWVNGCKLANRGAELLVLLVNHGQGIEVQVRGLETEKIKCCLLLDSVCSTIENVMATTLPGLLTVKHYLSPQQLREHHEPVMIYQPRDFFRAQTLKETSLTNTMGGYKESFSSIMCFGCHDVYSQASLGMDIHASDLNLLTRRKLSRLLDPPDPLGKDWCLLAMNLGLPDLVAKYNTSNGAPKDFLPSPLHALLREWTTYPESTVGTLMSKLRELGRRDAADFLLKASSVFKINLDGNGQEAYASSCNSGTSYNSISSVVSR

As to `COc1cc2ncnc(N[C@H](C)c3cccc4ccccc34)c2cc1OC`, the Activity in experiment [1] was found to be 90%; in experiment [2] it was 100%; in experiment [3], 71%; in [4], 100%; in experiment [5], 82%; in experiment [6] it was 90%. For the same compound, the Activity in [7] was determined as 94%; in [8], 75%; in experiment [9], 100%; in experiment [10], 100%; in experiment [11], 92%. Also, the inhibition in the experiment listed under Homo sapiens was 39%.

These data come from ChEMBL document CHEMBL5678818, “Discovery of potent SOS1 inhibitors that block RAS activation via disruption of the RAS-SOS1 interaction” (Proc Natl Acad Sci U S A, 2019).
